Earlier results in US6299888A, “Azelastine hydrochloride-containing percutaneous preparation having good percutaneous absorbability and reduced skin irritation” (Teikoku Seiyaku Kabushiki Kaisha, priority 1997, dated 2001).
Where a name gives a salt, the structure may show the parent alone.

Compound: CN1CCCC(n2nc(Cc3ccc(Cl)cc3)c3ccccc3c2=O)CC1 (stereo not shown) [azelastine hydrochloride]
- dissociation constant (pKa): about 9.5
